Measured values as given in ChEMBL document CHEMBL1130990, “High-throughput synthesis and direct screening for the discovery of novel hydrolytic metal complexes” (Bioorg Med Chem Lett, 1998).

Tests used:
[1] = Compound was evaluated for rate enhancement, obtained in the hydrolysis of N-methoxycarbonyl-L-phenylalanine-p-nitrophenylester (Ko = 1.1 x 10 e-3/min); ratio=Kobs/K0; format: ADME
[2] = Compound was evaluated for rate enhancement, obtained in the hydrolysis of para-nitrophenyl acetate (Ko = 1.6 x 10 e-4/min); ratio=Kobs/K0; format: ADME

[O-][Cl+3]([O-])([O-])[O][Zn][O][Cl+3]([O-])([O-])[O-].c1ccc(OC2COc3ccccc3CNCCNCCNCc3ccccc3OC2)cc1
Ratio [1]: 3.9
Ratio [2]: 2.5

OC1COc2ccccc2CNCCNCCNCc2ccccc2OC1.[O-][Cl+3]([O-])([O-])[O][Zn][O][Cl+3]([O-])([O-])[O-]
Ratio [1]: 2.9
Ratio [2]: 1.7

COC1COc2ccccc2CNCCNCCNCc2ccccc2OC1.[O-][Cl+3]([O-])([O-])[O][Zn][O][Cl+3]([O-])([O-])[O-]
Ratio [1]: 3
Ratio [2]: 2.4

[O-][Cl+3]([O-])([O-])[O][Zn][O][Cl+3]([O-])([O-])[O-].c1ccc2c(c1)CNCCNCCNCc1ccccc1OCC(Oc1ccc3ccccc3c1)CO2
Ratio [1]: 4.7
Ratio [2]: 2.9
